Experimental data published in US20250115565A1, “SOLID CRYSTALLINE FORMS OF HELICASE-PRIMASE INHIBITORS AND PROCESS OF PREPARATION THEREOF” (INNOVATIVE MOLECULES GMBH, priority 2022, published 2025).
Counter-ions that a name gives are not always drawn.

Legend:
[1] = Relative bioavailability of crystalline and salt forms after single oral dose in male mice (Example 6); format: in vivo; settings: male C57bl/6 mice, single oral dose adjusted to 10 mg/kg free IM-250, suspension in 0.5% HPMC in PBS, blood
Method: The relative bioavailability of crystalline and different salt forms versus suspended IM-250 (derived from a DMSO stock solution) after single dose oral administration in male C57bl/6 mice was examined. Animals (3 per group) had food withdrawn approximately 2 h before administration. The suspension was prepared from a DMSO stock solution, which was diluted 1:20 with 0.5% HPMC in PBS, ultrasonificated and orally administered with a gavage volume of 5 mL/kg. The suspensions of crystalline and different salt forms were prepared directly by adding powder to 0.5% HPMC in PBS, ultrasonificated and orally administered with a gavage volume of 5 mL/kg. Blood samples were taken at 0.5 h, 1 h, 2 h, 5 h, 12 h and 24 h via capillary microsampling and bioanalytics was measured via non-chiral LC-MS. The area-under-curve (AUC0-24 h) and relative bioavailability towards the IM-250 suspension was calculated. The doses for the salts were adjusted to 10 mg/kg free IM-250.

[2] = Chemical accelerated stability by HPLC after temperature and humidity stress (Example 7); format: physicochemical; settings: for % of unchanged compound left: HPLC UV 285 nm, 3 assays
Method: (§1) The chemical and physical accelerated stability of the crystalline material was studied in order to anticipate potential stability issues upon storage or ageing. Crystals were stored for 1 month at 40° C./75% relative humidity (RH) and were also stored for 1 month at 60° C. (and % HR<10% RH). The chemical stability was assessed by HPLC by external standardization versus a freshly prepared (non-stressed) standard solution. For that purpose, six samples (exactly weighted) are stored for each condition: 3 for the 2-weeks stability and 3 for the 4-weeks stability. The physical stability was also assessed by XRPD, DSC analyses by comparing the XRPD and DSC profiles of stressed samples to those of a non-stressed sample. For that purpose, two more samples (one per time point) are stored in each condition (respectively 40° C./75% RH and 60° C.).

[3] = Physical accelerated stability by XRPD and DSC after temperature and humidity stress (Example 7); format: physicochemical
Method: XRPD analysis was performed on a Bruker D2 Phase diffractometer using a copper anti-cathode, a mono-crystalline silicone sample holder and a position sensitive detector (LynxExe). Powder sample was loaded on a flat mono-crystalline silicone sample holder in a way to avoid preferred orientation and to sensure planarity of the speciem surface. Instrument operation conditions were as follows: ambient temperature and atmosphere; X-ray generator voltage 30 kV and intensity 10 mA; X-ray source: target Copper; emission radiation Kα1=0.15406 nm, Kα2=0.15444 nm, ratio Kα2/Kα1=0.5, KB filter radiation Nickel; Slit: anti-divergence […], Sollers slit 2.5°; Goniometer: angular sector analyzed from 4° to 45° or 4° to 50° for 20, step size 0.07° for 20; Sample holder rotation speed: 30 rpm; Detection: exposition time per step size of goniometer 1 s.
DSC analysis was performed on a Q1000 TA Instruments analyzer. The sample to be analyzed was weighed in an aluminium capsule, which was then crimped and put into the calorimeter oven. Instrument operation conditions were as follows: heater ramp 10° C./min; final temperature 230° C. or 240° C.; carrier gas: nitrogen (Messer “qualité Azote 5.0”) with flow rate of 50 mL/min.
as §1

[4] = ICH long term and accelerated stability testing (Example 8); format: physicochemical
Method: The long term and accelerated chemical and physical stability was assessed at a Contract Manufacturing Organization. IM-250 HCl salt samples were primary packaged in double PE bags (50 μm, Semadeni, e.g. cat. #2439 with each tag tied with plastic twist). The secondary package was a HDPE-drum closed with a HDPE screw cap (CurTec). The storage conditions were 25±2° C./60±5% relative humidity and 40±2° C./75±5% relative humidity.

[5] = Relative bioavailability and brain exposure of d3-IM-250 HCl salt versus IM-250 HCl salt in male mice (Example 12); format: in vivo; settings: mouse, male C57bl/6 mice, single oral dose 10 mg/kg; for Kp at 24 h: brain and whole blood, 24 h post dose, read-out: blood/brain ratio; for AUC(0-t): read-out: AUC0-24; for Cmax: suspension in 0.5% HPMC in PBS; for concentration at 24 h: brain 24 h post dose after PBS perfusion, read-out: brain level @ 24 h
Method: Animals (3 per group) had food withdrawn approximately 2 h before administration of 10 mg/kg of the test items. The suspensions were prepared directly by adding powder to 0.5% HPMC in PBS, ultrasonificated and orally administered with a gavage volume of 5 mL/kg. Blood samples (20 μL) were taken at 0.5 h, 1 h, 2 h, 5 h, 12 h and 24 h via capillary microsampling, collected from the tail vein into Li-heparin tubes. The samples were frozen on dry ice within 1-2 min of sampling and stored at −20° C. until LC-MS/MS analysis measured via non-chiral LC-MS. After 24 h post dose, animals were sacrificed and perfused with PBS until PBS was transparent and brain was collected and stored at −20° C. until processed for LC-MS analysis to determine the brain/blood exposure. The peak blood concentration (Cmax), elimination half-life (t1/2), area-under-curve (AUC0-24 h) and blood/brain ratio (as an easily obtainable surrogate parameter for nerve tissue exposure) was determined.

[6] = at least 4 weeks after storage at 40° C./75% RH and at 60° C.

Cc1nc(N(C)C(=O)Cc2ccc(-c3cc(F)ccc3F)cc2)sc1[S@@](C)(=N)=O [IM-250 Free base Form I, (S)-2-(2′,5′-Difluoro-[1,1′-biphenyl]-4-yl)-N-methyl-N-(4-methyl-5-(S-methylsulfon-imidoyl)thiazol-2-yl)acetamide]
AUC0-24 h [1]: 7683 ng·h/mL
% of unchanged compound left ([2]; 40° C./75% RH, 2 wk): 99.4%
% of unchanged compound left ([2]; 40° C./75% RH, 4 wk): 100.2%
% of unchanged compound left ([2]; 60° C., 2 wk): 99.6%
% of unchanged compound left ([2]; 60° C., 4 wk): 101.4%
chemical stability as a bulk powder [2, 6]: chemically stable
DSC Enthalpy transition ([3]; 40° C./75% RH, 2 wk): -77 J/g
DSC melting endotherm Temperature Onset ([3]; 40° C./75% RH, 2 wk): 163 °C
DSC melting endotherm Temperature Peak ([3]; 40° C./75% RH, 2 wk): 165 °C
DSC Enthalpy transition ([3]; 40° C./75% RH, 4 wk): -80 J/g
DSC melting endotherm Temperature Onset ([3]; 40° C./75% RH, 4 wk): 163 °C
DSC melting endotherm Temperature Peak ([3]; 40° C./75% RH, 4 wk): 165 °C
DSC Enthalpy transition ([3]; 60° C., 2 wk): -85 J/g
DSC melting endotherm Temperature Onset ([3]; 60° C., 2 wk): 163 °C
DSC melting endotherm Temperature Peak ([3]; 60° C., 2 wk): 164 °C
DSC Enthalpy transition ([3]; 60° C., 4 wk): -80 J/g
DSC melting endotherm Temperature Onset ([3]; 60° C., 4 wk): 163 °C
DSC melting endotherm Temperature Peak ([3]; 60° C., 4 wk): 165 °C
physical stability as a bulk powder [3, 6]: physically stable
DSC Enthalpy transition ([3]; no stress, initial analysis): -83 J/g
DSC melting endotherm Temperature Onset ([3]; no stress, initial analysis): 163 °C
DSC melting endotherm Temperature Peak ([3]; no stress, initial analysis): 164 °C

Cc1nc(N(C)C(=O)Cc2ccc(-c3cc(F)ccc3F)cc2)sc1[S@@](C)(=N)=O [IM-250 HCl salt]
AUC0-24 h [1]: 68289 ng·h/mL
Assay (HPLC, % w/w, as-is) ([4]; 6 months 25° C./60% RH): 97.9%
Chiral purity (HPLC area %) ([4]; 6 months 25° C./60% RH): 99.9%
Color and apperance ([4]; 6 months 25° C./60% RH): white to off-
Purity (HPLC area %) ([4]; 6 months 25° C./60% RH): 99.2%
Water content (% w/w) ([4]; 6 months 25° C./60% RH): 0.08%
Assay (HPLC, % w/w, as-is) ([4]; 6 months 40° C./75% RH): 98.6%
Chiral purity (HPLC area %) ([4]; 6 months 40° C./75% RH): 99.9%
Color and apperance ([4]; 6 months 40° C./75% RH): white to off-
Identity by XRPD ([4]; 6 months 40° C./75% RH): conforms to
Purity (HPLC area %) ([4]; 6 months 40° C./75% RH): 99.1%
Water content (% w/w) ([4]; 6 months 40° C./75% RH): 0.10%
Assay (HPLC, % w/w, as-is) ([4]; Initial): 98.5%
Chiral purity (HPLC area %) ([4]; Initial): 99.8%
Color and apperance ([4]; Initial): white to off-
Identity by XRPD ([4]; Initial): conforms to
Purity (HPLC area %) ([4]; Initial): 99.2%
Water content (% w/w) ([4]; Initial): 0.08%
physical stability as a bulk powder ([4]; at least 6 month after storage at 25° C. and at 40° C.): physically stable
Kp at 24 h [5]: 0.6 ± 0.2
half-life ([5]; whole blood, blood): 5.7 h
AUC(0-t) ([5]; whole blood, blood): 14400 ng·h/mL
Cmax ([5]; whole blood, blood): 1210 ng/mL
concentration at 24 h [5]: 175 ng/g

Cc1nc(N(C)C(=O)Cc2ccc(-c3cc(F)ccc3F)cc2)sc1[S@@](C)(=N)=O [IM-250 Napadisylate]
AUC0-24 h [1]: 48241 ng·h/mL

[2H]C([2H])([2H])c1nc(N(C)C(=O)Cc2ccc(-c3cc(F)ccc3F)cc2)sc1[S@@](C)(=N)=O [d3-IM-250 HCl salt]
Kp at 24 h [5]: 0.49 ± 0.1
AUC(0-t) ([5]; whole blood, blood): 28600 ng·h/mL
Cmax ([5]; whole blood, blood): 2570 ng/mL
concentration at 24 h [5]: 568 ng/g

Cc1nc(N(C)C(=O)Cc2ccc(-c3cc(F)ccc3F)cc2)sc1[S@@](C)(=N)=O [suspended IM-250 from DMSO, (S)-2-(2′,5′-Difluoro-[1,1′-biphenyl]-4-yl)-N-methyl-N-(4-methyl-5-(S-methylsulfon-imidoyl)thiazol-2-yl)acetamide]
AUC0-24 h [1]: 66406 ng·h/mL
